Activity calls are given as the source filed them. The rule behind the calls is not given here.
What was measured:
[1] = Drug metabolism in plasma of C57BL/6 mouse assessed as (9S)-9-Ethyl-9-hydroxy-3-isopropyl-2,3-dihydro[1,3]-oxazino[5,6-f ]pyrano[3',4':6,7]indolizino[1,2-b]quinoline-1,10,13(9H,12H,15H)-trione formation at 10 mg/kg, po measured up to 1 hr by LC-MS/MS analysis; assay type: ADME, organism-based; conditions: in vivo
HepG2 [2] = test: Cytotoxicity in human HepG2 cells assessed as reduction in cell viability incubated for 48 hrs by MTT assay; assay type: functional, cell-based; conditions: HepG2, 48 h
Mus musculus [3] = test: Toxicity in human HepG2 cells xenografted Balb/C mouse assessed as effect on mouse survival at 1.3 mg/kg, po qd for 30 days followed by 2 weeks observation; assay type: organism-based; conditions: in vivo, 336 h
Mus musculus [4] = test: Toxicity in human HepG2 cells xenografted Balb/C mouse assessed as reduction in body weight at 4 mg/kg, iv dosed once per week for 30 days followed by 2 weeks observation; assay type: organism-based; conditions: in vivo, 336 h
SMMC-7721 = test: Cytotoxicity in human SMMC7721 cells assessed as reduction in cell viability incubated for 48 hrs by MTT assay; assay type: functional, cell-based; conditions: SMMC-7721, 48 h
Mus musculus [5] = test: Toxicity in human HepG2 cells xenografted Balb/C mouse assessed as reduction in body weight at 1.3 mg/kg, po qd for 30 days followed by 2 weeks observation; assay type: organism-based; conditions: in vivo, 336 h
Mus musculus [6] = test: Toxicity in human HepG2 cells xenografted Balb/C mouse assessed as induction of gastrointestinal flatulence at 4 mg/kg, iv dosed once per week for 30 days followed by 2 weeks observation; assay type: organism-based; conditions: in vivo, 336 h
Mus musculus [7] = test: Toxicity in human HepG2 cells xenografted Balb/C mouse assessed as reduction in body weight at 8 mg/kg, iv dosed once per week for 30 days followed by 2 weeks observation; assay type: organism-based; conditions: in vivo, 336 h
[8] = Drug metabolism in plasma of C57BL/6 mouse assessed as (S)-8-Ethyl-8-hydroxy-2-isopropyl-8H-oxazolo[4,5-f ]-pyrano[3',4':6,7]indolizino[1,2-b]quinoline-9,12(11H,14H)-dione formation at 10 mg/kg, po measured up to 1 hr by LC-MS/MS analysis; assay type: ADME, organism-based; conditions: in vivo
Mus musculus [9] = test: Toxicity in human HepG2 cells xenografted Balb/C mouse assessed as induction of gastrointestinal flatulence at 1/3 mg/kg, po qd for 30 days followed by 2 weeks observation; assay type: organism-based; conditions: in vivo, 336 h
HepG2 [10] = test: Antitumor activity against human HepG2 cells xenografted in Balb/C mouse assessed as inhibition of tumor growth at 8 mg/kg, iv dosed once per week for 30 days followed by 2 weeks observation relative untreated control; assay type: functional; conditions: read-out: TGI
Mus musculus [11] = test: Toxicity in human HepG2 cells xenografted Balb/C mouse assessed as induction of gastrointestinal flatulence at 8 mg/kg, iv dosed once per week for 30 days followed by 2 weeks observation; assay type: organism-based; conditions: in vivo, 336 h
Mus musculus [12] = test: Toxicity in human HepG2 cells xenografted Balb/C mouse assessed as effect on mouse survival at 4 mg/kg, iv dosed once per week for 30 days followed by 2 weeks observation; assay type: organism-based; conditions: in vivo, 336 h
QGY-7703 = test: Cytotoxicity in human QGY7703 cells assessed as reduction in cell viability incubated for 48 hrs by MTT assay; assay type: functional, cell-based; conditions: QGY-7703, 48 h
KB = test: Cytotoxicity in human KB cells assessed as reduction in cell viability incubated for 48 hrs by MTT assay; assay type: functional, cell-based
[13] = Drug metabolism in plasma of C57BL/6 mouse assessed as (9S)-9-Ethyl-9-hydroxy-3-isopropyl-2,3-dihydro[1,3]-oxazino[5,6-f ]pyrano[3',4':6,7]indolizino[1,2-b]quinoline-1,10,13(9H,12H,15H)-trione formation at 10 mg/kg, iv measured up to 1 hr by LC-MS/MS analysis; assay type: ADME, organism-based; conditions: in vivo
HepG2 [14] = test: Antitumor activity against human HepG2 cells xenografted in Balb/C mouse assessed as inhibition of tumor growth at 30 mg/kg, iv dosed once per week for 30 days followed by 2 weeks observation relative untreated control; assay type: functional; conditions: read-out: TGI
Mus musculus [15] = test: Toxicity in human HepG2 cells xenografted Balb/C mouse assessed as effect on mouse survival at 8 mg/kg, iv dosed once per week for 30 days followed by 2 weeks observation; assay type: organism-based; conditions: in vivo, 336 h
HepG2 [16] = test: Antitumor activity against human HepG2 cells xenografted in Balb/C mouse assessed as inhibition of tumor growth at 1.3 mg/kg, po qd for 30 days followed by 2 weeks observation relative untreated control; assay type: functional; conditions: read-out: TGI
A549 = test: cells; conditions: Homo sapiens, A549, 48 h
Description: Cytotoxicity in human A549 cells assessed as reduction in cell viability incubated for 48 hrs by MTT assay

SGC-7901 = test: Cytotoxicity in human SGC7901 cells assessed as reduction in cell viability incubated for 48 hrs by MTT assay; assay type: functional, cell-based; conditions: SGC-7901, 48 h
Mus musculus [17] = test: Protection against LPS-induced lethal inflammation in C57BL/6 mouse model of sepsis assessed as survival at 4 mg/kg, po dosed 0.5 hrs before LPS injection followed by 4 mg/kg, po dosing at 1 hr, 4 hrs, and 8 hrs after LPS treatment; assay type: functional
MDA-MB-231 = test: Cytotoxicity in human MDA-MB-231 cells assessed as reduction in cell viability incubated for 48 hrs by MTT assay; assay type: functional, cell-based; conditions: MDA-MB-231, 48 h
MGC-803 = test: Cytotoxicity in human MGC803 cells assessed as reduction in cell viability incubated for 48 hrs by MTT assay; assay type: functional, cell-based; conditions: MGC-803, 48 h
SK-N-SH = test: Cytotoxicity in human SK-N-SH cells assessed as reduction in cell viability incubated for 48 hrs by MTT assay; assay type: functional, cell-based
MCF7 = test: cells; conditions: Homo sapiens, MCF7, 48 h
Description: Cytotoxicity in human MCF7 cells assessed as reduction in cell viability incubated for 48 hrs by MTT assay

[18] = Drug level in plasma of C57BL/6 mouse at 10 mg/kg, po measured up to 30 hrs by LC-MS/MS analysis; assay type: ADME, organism-based; conditions: in vivo
Bel-7402 = test: Cytotoxicity in human Bel7402 cells assessed as reduction in cell viability incubated for 48 hrs by MTT assay; assay type: functional, cell-based; conditions: Bel-7402, 48 h
HepG2 [19] = test: Antitumor activity against human HepG2 cells xenografted in Balb/C mouse assessed as inhibition of tumor growth at 4 mg/kg, iv dosed once per week for 30 days followed by 2 weeks observation relative untreated control; assay type: functional; conditions: read-out: TGI
[20] = target: T1, DNA topoisomerase 1 (Homo sapiens) (UniProt P11387); test: Inhibition of human recombinant topoisomerase-1-mediated DNA cleavage in at 50 uM using supercoiled pHOT-1 DNA incubated for 30 mins by ethidium bromide staining based agarose gel elctrophoresis method
T1 sequence (whole entry): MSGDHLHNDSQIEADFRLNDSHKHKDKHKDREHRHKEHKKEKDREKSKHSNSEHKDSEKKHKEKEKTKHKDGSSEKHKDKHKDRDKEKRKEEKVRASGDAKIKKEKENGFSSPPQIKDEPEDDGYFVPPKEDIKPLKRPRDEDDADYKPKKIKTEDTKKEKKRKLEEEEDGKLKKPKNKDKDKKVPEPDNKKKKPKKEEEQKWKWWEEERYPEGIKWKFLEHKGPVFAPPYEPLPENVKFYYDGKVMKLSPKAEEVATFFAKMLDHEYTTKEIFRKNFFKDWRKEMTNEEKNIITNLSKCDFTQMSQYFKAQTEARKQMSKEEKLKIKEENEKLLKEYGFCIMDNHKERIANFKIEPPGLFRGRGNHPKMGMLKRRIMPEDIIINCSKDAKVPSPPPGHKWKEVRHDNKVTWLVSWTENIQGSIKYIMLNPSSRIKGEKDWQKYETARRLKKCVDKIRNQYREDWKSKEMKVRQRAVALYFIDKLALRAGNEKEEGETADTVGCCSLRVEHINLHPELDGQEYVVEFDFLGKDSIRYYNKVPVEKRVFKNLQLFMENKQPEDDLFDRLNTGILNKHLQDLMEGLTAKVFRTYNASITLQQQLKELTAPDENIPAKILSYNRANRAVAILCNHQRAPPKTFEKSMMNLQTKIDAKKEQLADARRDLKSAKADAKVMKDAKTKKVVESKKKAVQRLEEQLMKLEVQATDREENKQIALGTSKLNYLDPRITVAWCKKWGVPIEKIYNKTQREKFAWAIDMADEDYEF

Mus musculus [21] = test: Toxicity in Balb/C mouse administered as daily dose for 1 week measured daily for up to 28 days; assay type: organism-based; conditions: in vivo
[22] = Aqueous solubility of the compound; assay type: physicochemical; conditions: aqueous; read-out: solubility
Mus musculus [23] = test: Toxicity in human HepG2 cells xenografted Balb/C mouse assessed as reduction in body weight at 2 mg/kg, iv dosed once per week for 30 days followed by 2 weeks observation; assay type: organism-based; conditions: in vivo, 336 h
[24] = target: T1, DNA topoisomerase 1 (Homo sapiens); test: Inhibition of human recombinant topoisomerase-1-mediated DNA cleavage in at 100 uM using supercoiled pHOT-1 DNA incubated for 30 mins by ethidium bromide staining based agarose gel elctrophoresis method
HepG2 [25] = test: Antitumor activity against human HepG2 cells xenografted in Balb/C mouse assessed as inhibition of tumor growth at 2 mg/kg, iv dosed once per week for 30 days followed by 2 weeks observation relative untreated control; assay type: functional; conditions: read-out: TGI
HepG2 [26] = test: Antitumor activity against human HepG2 cells xenografted in Balb/C mouse assessed as inhibition of tumor growth at 2 mg/kg, iv dosed once per week for 30 days followed by 2 weeks observation; assay type: functional, organism-based

CC[C@@]1(OC(=O)CNC(=O)CCC(=O)O)C(=O)OCc2c1cc1n(c2=O)Cc2cc3c4c(ccc3nc2-1)OC(C(C)C)NC4=O (stereo not given in full)
Drug metabolism [1]: Metabolite_Notdetected | IC50 (HepG2 [2]): 0.971 µM | Activity (Mus musculus [3]): Non-Toxic | Activity (Mus musculus [4]): Non-Toxic | IC50 (SMMC-7721): > 10 µM | Activity (Mus musculus [5]): Non-Toxic | Activity (Mus musculus [6]): Toxic | Activity (Mus musculus [7]): Non-Toxic | Drug metabolism [8]: Metabolite_Notdetected | Activity (Mus musculus [9]): Toxic | inhibition in vivo at 8 mg/kg (HepG2 [10]): 93% | Activity (Mus musculus [11]): Toxic | Activity (Mus musculus [12]): Non-Toxic | IC50 (QGY-7703): > 10 µM | IC50 (KB): 7.28 µM | Drug metabolism [13]: Metabolite_Notdetected | inhibition in vivo at 30 mg/kg (HepG2 [14]): 90% | Activity (Mus musculus [15]): Non-Toxic | inhibition in vivo at 1.3 mg/kg (HepG2 [16]): 93% | IC50 (A549): 6.47 µM | IC50 (SGC-7901): > 10 µM | Activity (Mus musculus [17]): 100% | IC50 (MDA-MB-231): 5.02 µM | IC50 (MGC-803): 0.971 µM | IC50 (SK-N-SH): 0.194 µM | IC50 (MCF7): > 10 µM | Drug uptake [18]: Not Active | IC50 (Bel-7402): > 10 µM | inhibition in vivo at 4 mg/kg (HepG2 [19]): 83%

CC[C@@]1(O)C(=O)OCc2c1cc1n(c2=O)Cc2cc3c(CN(C)C)c(O)ccc3nc2-1 [TOPOTECAN]
inhibition [20]: Active | IC50 (HepG2 [2]): 0.237 µM | MTD (Mus musculus [21]): 2 mg/kg | IC50 (SMMC-7721): 11.6 µM | solubility [22]: < 1000 µg/mL | Activity (Mus musculus [23]): Toxic | inhibition [24]: Active | IC50 (QGY-7703): 11.9 µM | inhibition in vivo at 2 mg/kg (HepG2 [25]): 74% | IC50 (SGC-7901): > 10 µM | IC50 (MDA-MB-231): 1.9 µM | IC50 (MGC-803): 0.19 µM | IC50 (SK-N-SH): 0.093 µM | TGI (HepG2 [26]): Active | IC50 (MCF7): 2.14 µM | IC50 (Bel-7402): 7.12 µM

Source: ChEMBL document CHEMBL4196217, “Structure-Based Drug Design and Identification of H2O-Soluble and Low Toxic Hexacyclic Camptothecin Derivatives with Improved Efficacy in Cancer and Lethal Inflammation Models in Vivo” (J Med Chem, 2018)
